Where two headings read alike, the source gives them in different places. Marks after values point to notes of the source that are not given here.

In test [1] the target is T1, α-tubulin (Bos taurus, UniProt P81947).
T1 construct: MAP-rich bovine brain tubulin (99% purity), Hela cell tubulin (90% purity); purchased Cytoskeleton (Denver, Colo.); host or cells: bovine brain
Put plainly: Subtilisin digestion of tubulin before or after labeling with Probe 1. In kind it is biochemical, bovine. As to the method:
FIGS. 6A-6C provide data for the digestion of tubulin by subtilisin before or after photoaffinity labeling with Probe 1. FIG. 6A diagrams the predicted subtilisin cleavage site and cleavage products for α-tubulin. FIG. 6B provides Coomassie staining (top) and fluorographic (bottom) images of fragments photolabeled with Probe 1 and exposed to subtilisin as follows: Tubulin (5 μg) was incubed without (Lanes 1 and 4) or with 0.2 μg subtilisin for 60 minutes at 30° C. and then photolabeled with 0.25 μM [^3H]-Probe 1 (Lane 2) according to conditions specified in Section 6.1.11. Alternatively, photolabeling was done before subtilisin digestions (Lane 3). In both cases samples were then separated by SDS-PAGE. […] Again, samples were separated by SDS-PAGE.
Before or after incubating with 0.25 μM (0.36 μCi) [^3H]-Probe 1 for 30 minutes at room temperature and irradiating as described in Section 7.1.5, tubulin (5 μg) was digested under native conditions with subtilisin (0.2 μg) for 60 minutes at 30° C. Enzymatic digestions were stopped with 1 mM PMSF. After both digestion and labeling, samples were resolved by SDS-PAGE under conditions that allowed separation of α- and β-tubulin subunits. Gels were then fixed and stained with Coomassie blue from BioRad (Hercules, Calif.) and subjected to fluorography.

In test [2] the target is T2, bovine brain tubulin (Bos taurus, UniProt P81947+Q6B856).
T2 construct: MAP-rich bovine brain tubulin (99% purity), Hela cell tubulin (90% purity); purchased Cytoskeleton (Denver, Colo.); host or cells: bovine brain
Put plainly: Reversible binding affinity assay (tubulin fluorescence). Here is the method:
The affinity of both HTI-286 and of non-radiolabled Probe 1 and Probe 2, to bovine brain tubulin was determined by previously published methods (Krishnamurthy et al., Biochem., submitted). Briefly, 5 mg/mL […] tubulin prepared in PEM buffer was pre-incubated with buffer or varying concentrations of test agents in individual quartz cuvettes. The intrinsic tryptophan fluorescence of tubulin (excitation at 560 nm and maximal emission at 580 nm) was measured after pre-incubation for 90 minutes. The change in fluorescence intensity at 580 nm in the presence of compound was fitted to a quadratic equation to obtain apparent dissociation constants (KD) of the test agents.

For test [3], the target named is T3, tubulin in KB-3-1 cell lysates (Homo sapiens, UniProt P07437+P68363).
T3 construct: a cytosolic preparation of KB-3-1 cell lysates (50 μg) or KB-3-1 cells (40,000 cells) were used in the place of purified tubulin; endogenous in cells; host or cells: KB-3-1 cells (cytosolic supernatant at 100,000 x g, or whole cells)
Put plainly: Probe 1 photolabeling in KB-3-1 cell lysates. In kind it is binding. The note with it: 250 μM non-radiolabeled, 2.5 μM [3H]-probe 1, KB-3-1 cell lysates (50 μg). As to the method: FIG. 1B illustrates the labeling of KB-3-1 cell lysates (50 μg) (lanes 1 and 2) and purified bovine brain (BB) tubulin (5 μg) (lanes 3 and 4) incubated for 30 minutes at room temperature with 2.5 μM [^3H]-probe 1. Samples in lanes 1 and 3 were pre-incubated with 250 μM non-radiolabeled probe 1 prior to incubation with radiolabeled materials. Samples were analyzed as described in FIG. 1A. Lanes marked “M” are molecular weight markers in kDa.
Alternatively, a cytosolic preparation of KB-3-1 cell lysates (50 μg) or KB-3-1 cells (40,000 cells) were used in the place of purified tubulin above. The supernatant of mechanically disrupted cells centrifuged at 100,000×g was used as a cytosolic preparation. K-3-1 cells were prepared by growing KB-3-1 cells in a 96-well plate and rinsing them with serum free medium. For experiments with whole cells, 250 μM HTI-286 was used as the competitor molecule during pre-incubation at 37° C. for 15 minutes.

Test [4] concerns KB cells. The test can be described thus: Cell proliferation assay in tissue culture (SRB). The class given is cell-based. The note with it: Homo sapiens, KB, 72 h. Here is the method:
Cell proliferation studies were performed according to procedures described by Loganzo et al. (Cancer Res. 2003, 63:1838-1845). Briefly, KB cells were plated in 96-well plates in 100 μL media at densities pre-determined to produce 60-90% confluence at the time of analysis. Compounds, which were serially diluted into media as 2× stocks, were added to cells in duplicate. After 72 hours of incubation, cell survival was assayed by the SRB assay as described (Rabindran et al., C. Cancer Res. 1998, 58:5850-5858). IC50 values (i.e. the concentration of drug needed to inhibit cell growth by 50%) were used to evaluate drug potency.

The target in test [5] is T2, bovine brain tubulin. Put plainly: Competition of [3H]-Probe 1 photolabeling of tubulin. In kind it is binding. Conditions: for inhibition of tubulin labeling by non-radiolabeled probe: 100 μM non-radiolabeled; for Probe 1 photolabeling of tubulin (% of no-competitor control): control (no competitor) = 100. Here is the method: Alternatively, a cytosolic preparation of KB-3-1 cell lysates (50 μg) or KB-3-1 cells (40,000 cells) were used in the place of purified tubulin above. The supernatant of mechanically disrupted cells centrifuged at 100,000×g was used as a cytosolic preparation. K-3-1 cells were prepared by growing KB-3-1 cells in a 96-well plate and rinsing them with serum free medium.
If whole cells were used, Laemmli sample buffer was then added to lyse the cells.
Low grade SDS (Sigma, catalog No. L5750) was used in the running buffer, when needed, to allow separation of α and β-tubulin subunits. Gels were fixed, stained with Coomassie blue from BioRad (Hercules, Calif.) to ensure equal loading of protein, and sliced. […] Alternatively, gels were incubated with EN^3HANCE according to the manufacturer's instructions (Life Sciences Products, Inc.), washed, and dried prior to exposure of the gel to Biomax MX film from Kodak (Rochester, N.Y.) for fluorography.
After incubation for 30 minutes at 37° C., samples were irradiated with 360 nm UV light for 30 minutes and separated by SDS-PAGE. Gels were exposed to film using fluorographic techniques.
In particular, photolabeling experiments were performed as described in section 7.1.5 above, at both room temperature and at 37° C.

With `CN[C@H](C(=O)N[C@H](C(=O)N(C)[C@H](/C=C(\C)C(=O)O)C(C)C)C(C)(C)C)C(C)(C)c1ccc(C(=O)c2ccccc2)cc1` [Probe 1, 4-benzoyl-N,β,β-trimethyl-L-phenylalanyl-N^1-[(1S,2E)-3-carboxy-1-isopropylbut-2-enyl]-N^1,3-dimethyl-L-valinamide], the “effect on subtilisin digestion of α-tubulin” value in test [1] (0.25 μM radiolabeled) is “partially inhibits the digestion of α-tubulin”; in test [1] (100 or 250 μM non-radiolabeled, β-tubulin is completely digested), “completely blocks”. The Kd was 200 to 800 nM in test [2] (Table 1, binding to bovine brain tubulin, read-out: KD) and 500 nM in test [2] (rhodamine-labeled tubulin, 90 minutes pre-incubation, read-out: apparent binding constant (KD), fluorescence method). The “inhibition of radiolabeled Probe 1 binding in cell lysates” value in test [3] is recorded as “can inhibit the binding of radiolabled Probe 1”. Besides, the IC50 in test [4] stood at 1.8 nM; in test [5] (room temperature, 2.5 μM tubulin, 0.25 μM radiolabeled Probe 1, read-out: IC50 for inhibition of Probe 1 photolabeling of tubulin), 5000 nM. The “inhibition of tubulin labeling by non-radiolabeled probe” value came to 93% in test [5] (tubulin: radiolabeled probe 1 of 2.5:0.25 (10:1)) and 82% in test [5] (tubulin: radiolabeled probe 1 of 2.5:2.5 (1:1)). The “reduction of Probe 1 photolabeling of tubulin” value is “about 75%” in test [5] (37° C.) and “approximately 87%” in test [5] (room temperature, 400-fold molar excess (100 μM) competitor, 2.5 μM tubulin, 0.25 μM radiolabeled Probe 1). Moreover, the “Probe 1 photolabeling of tubulin (% of no-competitor control)” value is given as 24^† % in test [5] (37° C., 100 μM competitor) and 12 ± 7.8% in test [5] (Room Temp., 2.5 μM tubulin, 0.25 μM radiolabeled Probe 1, 100 μM competitor).

One may read the IC50 as the concentration that inhibits the measured activity by half.

Source of the values: patent publication US20070026478A1, “Hemiasterlin affinity probes and their uses” (WYETH, priority 2002, published 2007).
